Experimental data from PubChem BioAssay AID248 (DTP/NCI, 2004).
Inconclusive results and toxic doses are left out. Rule as the data show it: active = T/C of 150% or more; inactive = T/C below 125%.

System: L1210 leukemia ip in BDF1 mice, survival T/C
Experiment: NCI In Vivo Anticancer Drug Screen. Data for tumor model L1210 Leukemia (intraperitoneal) in B6D2F1 (BDF1) mice
Conditions: endpoint: mean survival time, higher = longer survival
Procedure, shortened: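 Tumor cells were implanted, animals were treated, and survival was followed. The result divides the treated measurement by the vehicle-control measurement.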

[1] = dose: 100.0 mg/kg/injection, schedule: Q01DX001 (ip), vehicle: saline with Tween-80
[2] = dose: 200.0 mg/kg/injection, schedule: Q01DX001 (ip), vehicle: saline with Tween-80
[3] = dose: 400.0 mg/kg/injection, schedule: Q01DX001 (ip), vehicle: saline with Tween-80
[4] = dose: 100.0 mg/kg/injection, schedule: Q04DX003 (ip), vehicle: saline with Tween-80
[5] = dose: 200.0 mg/kg/injection, schedule: Q04DX003 (ip), vehicle: saline with Tween-80
[6] = dose: 100.0 mg/kg/injection, schedule: Q01DX009 (ip), vehicle: saline with Tween-80
[7] = dose: 200.0 mg/kg/injection, schedule: Q01DX009 (ip), vehicle: saline with Tween-80
[8] = dose: 400.0 mg/kg/injection, schedule: Q04DX003 (ip), vehicle: saline with Tween-80
[9] = dose: 400.0 mg/kg/injection, schedule: Q01DX009 (ip), vehicle: saline with Tween-80
[10] = dose: 100.0 mg/kg/injection, schedule: Q01DX001 (ip), vehicle: saline
[11] = dose: 200.0 mg/kg/injection, schedule: Q01DX001 (ip), vehicle: saline
[12] = dose: 400.0 mg/kg/injection, schedule: Q01DX001 (ip), vehicle: saline
[13] = dose: 100.0 mg/kg/injection, schedule: Q01DX009 (ip), vehicle: Klucel (hydroxypropylcellulose) (HPC)
[14] = dose: 200.0 mg/kg/injection, schedule: Q01DX009 (ip), vehicle: Klucel (hydroxypropylcellulose) (HPC)
[15] = dose: 50.0 mg/kg/injection, schedule: Q01DX001 (ip), vehicle: carboxymethylcellulose (CMC)
[16] = dose: 100.0 mg/kg/injection, schedule: Q01DX001 (ip), vehicle: carboxymethylcellulose (CMC)
[17] = dose: 200.0 mg/kg/injection, schedule: Q01DX001 (ip), vehicle: carboxymethylcellulose (CMC)
[18] = dose: 50.0 mg/kg/injection, schedule: Q01DX009 (ip), vehicle: saline
[19] = dose: 100.0 mg/kg/injection, schedule: Q01DX009 (ip), vehicle: saline
[20] = dose: 200.0 mg/kg/injection, schedule: Q01DX009 (ip), vehicle: saline
[21] = dose: 400.0 mg/kg/injection, schedule: Q01DX001 (ip), vehicle: carboxymethylcellulose (CMC)

Measured: T/C

Cc1ccc(S(=O)(=O)OCC(C)C2CCC3C4CC=C5CC(Cl)CCC5(C)C4CCC23C)cc1 (stereo unspecified)
inactive: [1] 91 % of control | [2] 102 % of control | [3] 94 % of control

CC(=O)OC1=C2C(C)(CCC(OC(C)=O)C2(C)C)C2=C(C1=O)C1(C)CCC(C(C)CCCC(C)C)C1(C)CC2=O (stereo unspecified)
inactive: [4] 87 % of control | [5] 87 % of control

C#CCC#Cc1ccccc1
inactive: [6] 89 % of control | [7] 92 % of control

NNC(=O)CCCO
inactive: [4] 103 % of control | [5] 98 % of control | [8] 101 % of control

COc1ccc(NC(=O)CCC(=O)O)cc1
inactive: dose: 50.0 mg/kg/injection, schedule: Q01DX009 (ip), vehicle: saline with Tween-80 110 % of control | dose: 50.0 mg/kg/injection, schedule: Q04DX003 (ip), vehicle: saline with Tween-80 96 % of control | [6] 108 % of control | [4] 100 % of control | [7] 100 % of control | [5] 100 % of control | [9] 107 % of control | [8] 94 % of control

CN(CCO)C(c1ccccc1)c1ccccc1
inactive: [10] 100 % of control | [11] 94 % of control | [12] 103 % of control

CCC(CC)NCC(C)(C)O
inactive: dose: 75.0 mg/kg/injection, schedule: Q01DX001 (ip), vehicle: acid diluted with saline 115 % of control | dose: 150.0 mg/kg/injection, schedule: Q01DX001 (ip), vehicle: acid diluted with saline 110 % of control

Cc1ccc(S(=O)(=O)OCC2CC3CCC2C3)cc1 (stereo unspecified)
inactive: dose: 100.0 mg/kg/injection, schedule: Q04DX003 (ip), vehicle: other 91 % of control | dose: 200.0 mg/kg/injection, schedule: Q04DX003 (ip), vehicle: other 94 % of control | dose: 400.0 mg/kg/injection, schedule: Q04DX003 (ip), vehicle: other 98 % of control

O=C(O)CCNC(=O)CNC(=O)OCc1ccccc1
inactive: [13] 98 % of control | [14] 100 % of control | dose: 300.0 mg/kg/injection, schedule: Q01DX009 (ip), vehicle: Klucel (hydroxypropylcellulose) (HPC) 98 % of control

O=C(O)/C=C/C(=O)Nc1ccc(F)cc1F
inactive: [4] 100 % of control | [5] 100 % of control | [8] 107 % of control

Cn1c(=O)c2ncn(CC3CCCCC3)c2n(C)c1=O
inactive: [15] 87 % of control | [16] 90 % of control | [17] 86 % of control

Nc1ccc2ncnn2c1
inactive: [10] 103 % of control | [11] 106 % of control | [12] 101 % of control

O=C(O)O.[Co].[NH-]CCN(CC[NH-])CC[NH-]
inactive: dose: 50.0 mg/kg/injection, schedule: Q01DX001 (ip), vehicle: saline 105 % of control | [10] 94 % of control | [11] 111 % of control | [12] 100 % of control

NOC(=O)c1ccccc1
inactive: dose: 100.0 mg/kg/injection, schedule: Q04DX002 (ip), vehicle: saline 105 % of control | dose: 200.0 mg/kg/injection, schedule: Q04DX002 (ip), vehicle: saline 102 % of control

c1nc(N2CC2)c2cnn(C3CCCCO3)c2n1 (stereo unspecified)
inactive: [15] 97 % of control | [18] 102 % of control | [16] 103 % of control | [19] 113 % of control | dose: 100.0 mg/kg/injection, schedule: Q04DX003 (ip), vehicle: saline 100 % of control | [17] 106 % of control | [20] 112 % of control | dose: 200.0 mg/kg/injection, schedule: Q04DX003 (ip), vehicle: saline 97 % of control | [21] 103 % of control

c1ccc2cc(-c3nc4cccc5c4n3CCC5)ccc2c1
inactive: [6] 97 % of control | [4] 92 % of control | [7] 95 % of control | [5] 89 % of control | [9] 98 % of control | [8] 94 % of control

CCc1ccc([N+](=O)[O-])cc1
inactive: [16] 95 % of control | [17] 103 % of control | [21] 97 % of control

CCOC(=O)C(O)c1cccc(OC)c1 (stereo unspecified)
inactive: dose: 100.0 mg/kg/injection, schedule: Q01DX009 (ip), vehicle: saline sonified 92 % of control | dose: 100.0 mg/kg/injection, schedule: Q04DX003 (ip), vehicle: saline sonified 97 % of control | dose: 200.0 mg/kg/injection, schedule: Q04DX003 (ip), vehicle: saline sonified 94 % of control | dose: 400.0 mg/kg/injection, schedule: Q01DX009 (ip), vehicle: saline sonified 89 % of control | dose: 400.0 mg/kg/injection, schedule: Q04DX003 (ip), vehicle: saline sonified 103 % of control

CCNc1cc(Cl)c(C(=O)O)cc1[N+](=O)[O-]
inactive: [19] 116 % of control | [20] 103 % of control | dose: 400.0 mg/kg/injection, schedule: Q01DX009 (ip), vehicle: saline 95 % of control

C(=N/N=C(/C(=N/N=C/c1ccccc1)c1ccccc1)c1ccccc1)\c1ccccc1
inactive: [10] 94 % of control | [11] 95 % of control | [12] 97 % of control

NC(=O)c1ccccc1NC(=O)COc1ccc(Cl)cc1
inactive: [13] 95 % of control | dose: 100.0 mg/kg/injection, schedule: Q04DX003 (ip), vehicle: Klucel (hydroxypropylcellulose) (HPC) 97 % of control | [14] 92 % of control | dose: 200.0 mg/kg/injection, schedule: Q04DX003 (ip), vehicle: Klucel (hydroxypropylcellulose) (HPC) 98 % of control | dose: 400.0 mg/kg/injection, schedule: Q01DX009 (ip), vehicle: Klucel (hydroxypropylcellulose) (HPC) 97 % of control | dose: 400.0 mg/kg/injection, schedule: Q04DX003 (ip), vehicle: Klucel (hydroxypropylcellulose) (HPC) 106 % of control

Clc1ccc(C2=CC(c3ccccc3)C3CC23)cc1 (stereo unspecified)
inactive: [1] 92 % of control | [2] 94 % of control | [3] 89 % of control

c1ccc([Si](c2ccccc2)(c2ccccc2)[Si](c2ccccc2)(c2ccccc2)c2ccccc2)cc1
inactive: dose: 12.5 mg/kg/injection, schedule: Q01DX009 (ip), vehicle: saline 100 % of control | dose: 25.0 mg/kg/injection, schedule: Q01DX009 (ip), vehicle: saline 93 % of control | [18] 93 % of control | dose: 100.0 mg/kg/injection, schedule: Q04DX002 (ip), vehicle: Klucel (hydroxypropylcellulose) (HPC) 98 % of control | dose: 200.0 mg/kg/injection, schedule: Q04DX002 (ip), vehicle: Klucel (hydroxypropylcellulose) (HPC) 98 % of control | dose: 400.0 mg/kg/injection, schedule: Q04DX002 (ip), vehicle: Klucel (hydroxypropylcellulose) (HPC) 87 % of control

NC(N)=N/N=C/c1ccccc1Cl
inactive: dose: 4.0 mg/kg/injection, schedule: Q01DX Z (ip), vehicle: saline 97 % of control | dose: 8.0 mg/kg/injection, schedule: Q01DX Z (ip), vehicle: saline 97 % of control | dose: 16.0 mg/kg/injection, schedule: Q01DX Z (ip), vehicle: saline 102 % of control
